Values after ≈ are worked out from the molar mass of the structure shown.
Key:
Assay type in all cases: functional
[1] = test system: Candida albicans; experiment: 50% inhibitory activity against Candida albicans (40 clinical isolates) determined at pH-7.2
[2] = test system: Candida; experiment: 50% inhibitory activity against the Candida. species (40 clinical isolates) was determined at pH-7.2
[3] = test system: Candida albicans; experiment: Inhibitory activity against the Candida albicans (40 clinical isolates), determined at pH-7.2
[4] = test system: Candida; experiment: Inhibitory activity against Candida. species (40 clinical isolates), determined at pH-5.8
[5] = test system: Candida albicans; experiment: Percent resistance against Candida albicans (40 clinical isolates) at 256 micro g/mL (pH=5.8), activity is expressed as R%.
[6] = test system: Candida; experiment: Resistance against all Candida. species (40 clinical isolates) at 256 micro g/mL (pH=5.8). Activity is expressed as R%.
[7] = test system: Candida; experiment: Inhibitory activity against Candida. species. (40 clinical isolates), determined at pH-7.2
[8] = test system: Candida; experiment: Percent resistance against all Candida. species (40 clinical isolates) at 256 micro g/mL (pH=7.2), activity is expressed as R%.
[9] = test system: Candida albicans; experiment: Inhibitory activity against Candida albicans (40 clinical isolates), determined at pH-7.2
[10] = test system: Candida albicans; experiment: Resistance against Candida. albicans (40 clinical isolates) at 256 ug/mL (pH=7.2), activity is expressed as R%.
[11] = test system: Candida albicans; experiment: Inhibitory activity against the Candida albicans (40 clinical isolates), determined at pH-5.8
[12] = test system: Candida albicans; experiment: 50% inhibitory activity against Candida albicans (40 clinical isolates) determined at pH-5.8
[13] = test system: Candida albicans; experiment: Inhibitory activity against Candida albicans (40 clinical isolates), determined at pH-5.8
[14] = test system: Candida; experiment: 90% inhibitory activity against Candida. species (40 clinical isolates) determined at pH-7.2
[15] = test system: Candida; experiment: Inhibitory activity against Candida. species. (40 clinical isolates), determined at pH-5.8
[16] = Candida albicans, read-out: MIC50

| Compound | MIC50 [1, 16] [µg/mL] | MIC50 [2] [µg/mL] | MIC90 [3] [µg/mL] | MIC50 [4] [µg/mL] | MIC90 [4] [µg/mL] | R [5] [%] | R [6] [%] | MIC [7] [µg/mL] | R [8] [%] | MIC [9] [µg/mL] | R [10] [%] | MIC90 [11] [µg/mL] | MIC50 [12] [µg/mL] | MIC [13] [µg/mL] | MIC90 [14] [µg/mL] | MIC [15] [µg/mL] | MIC50 [1] [µg/mL] |
| --- | --- | --- | --- | --- | --- | --- | --- | --- | --- | --- | --- | --- | --- | --- | --- | --- | --- |
| Clc1ccc(-c2c[nH]cc2C(c2ccc(Cl)cc2Cl)n2ccnc2)cc1 (stereo not given) | 2 (≈ 4.97 µM) | 32 (≈ 79.5 µM) | 8 (≈ 19.9 µM) | 16 (≈ 39.7 µM) | 32 (≈ 79.5 µM) | 0 | 0 | 61 (≈ 151 µM) | 0 | 3.6 (≈ 8.94 µM) | 0 | 8 (≈ 19.9 µM) | 2 (≈ 4.97 µM) | 3.94 (≈ 9.78 µM) | 128 (≈ 318 µM) | 14.4 (≈ 35.8 µM) |  |
| Cc1ccc(C(c2c[nH]cc2-c2ccc(Cl)cc2Cl)n2ccnc2)cc1 (stereo not given) | 8 (≈ 20.9 µM) | 256 (≈ 670 µM) | 16 (≈ 41.9 µM) | 16 (≈ 41.9 µM) | 32 (≈ 83.7 µM) | 0 | 0 | > 224 | 50 | 13.1 (≈ 34.3 µM) | 0 | 16 (≈ 41.9 µM) | 8 (≈ 20.9 µM) | 7.9 (≈ 20.7 µM) | > 256 | 16.4 (≈ 42.9 µM) |  |
| Clc1ccc(-c2c[nH]cc2C(c2ccc(-n3cccc3)cc2)n2ccnc2)c(Cl)c1 (stereo not given) | > 256 | > 256 | > 256 | 16 (≈ 36.9 µM) | 32 (≈ 73.8 µM) | 0 | 0 | > 256 | 100 | > 256 | 100 | 64 (≈ 148 µM) | 16 (≈ 36.9 µM) | 33.7 (≈ 77.8 µM) | > 256 | 19.5 (≈ 45 µM) |  |
| Clc1ccccc1-c1c[nH]cc1C(c1ccccc1)n1ccnc1 (stereo not given) | 16 (≈ 47.9 µM) | 32 (≈ 95.9 µM) | 32 (≈ 95.9 µM) | 64 (≈ 192 µM) | 32 (≈ 95.9 µM) | 0 | 0 | 22.6 (≈ 67.7 µM) | 0 | 19.2 (≈ 57.5 µM) | 0 | 64 (≈ 192 µM) |  | 43.8 (≈ 131 µM) | 64 (≈ 192 µM) | 78.2 (≈ 234 µM) | 32 (≈ 95.9 µM) |
| Clc1ccc(C(c2c[nH]cc2-c2ccccc2Cl)n2ccnc2)c(Cl)c1 (stereo not given) | 4 (≈ 9.93 µM) | 32 (≈ 79.5 µM) | 16 (≈ 39.7 µM) | 16 (≈ 39.7 µM) | 16 (≈ 39.7 µM) | 0 | 0 | 21.8 (≈ 54.1 µM) | 0 | 7.3 (≈ 18.1 µM) | 0 | 16 (≈ 39.7 µM) | 4 (≈ 9.93 µM) | 5.19 (≈ 12.9 µM) | 32 (≈ 79.5 µM) | 13.7 (≈ 34 µM) |  |
| Clc1ccc(-c2c[nH]cc2C(c2ccccc2)n2ccnc2)cc1Cl (stereo not given) | 6 (≈ 16.3 µM) | 16 (≈ 43.4 µM) | 16 (≈ 43.4 µM) | 16 (≈ 43.4 µM) | 32 (≈ 86.9 µM) | 0 | 0 | 11.4 (≈ 31 µM) | 0 | > 10.9 | 0 | 16 (≈ 43.4 µM) | 8 (≈ 21.7 µM) | 7.2 (≈ 19.6 µM) | 16 (≈ 43.4 µM) | 19.1 (≈ 51.9 µM) |  |
| Cc1ccc(C(c2c[nH]cc2-c2ccc(Cl)c(Cl)c2)n2ccnc2)cc1 (stereo not given) | 4 (≈ 10.5 µM) | 16 (≈ 41.9 µM) | 16 (≈ 41.9 µM) | 16 (≈ 41.9 µM) | 16 (≈ 41.9 µM) | 0 | 0 | 17.5 (≈ 45.8 µM) | 0 | 5.8 (≈ 15.2 µM) | 0 | 16 (≈ 41.9 µM) | 4 (≈ 10.5 µM) | 7.9 (≈ 20.7 µM) | 32 (≈ 83.7 µM) | 14.2 (≈ 37.1 µM) |  |
| Fc1ccc(C(c2c[nH]cc2-c2ccc(Cl)c(Cl)c2)n2ccnc2)cc1 (stereo not given) | 4 (≈ 10.4 µM) | 32 (≈ 82.8 µM) | 16 (≈ 41.4 µM) | 16 (≈ 41.4 µM) | 32 (≈ 82.8 µM) | 0 | 0 | 26.6 (≈ 68.9 µM) | 0 | 7.2 (≈ 18.6 µM) | 0 | 16 (≈ 41.4 µM) | 4 (≈ 10.4 µM) | 7.2 (≈ 18.6 µM) | 32 (≈ 82.8 µM) | 16.4 (≈ 42.5 µM) |  |
| Clc1ccc(-c2c[nH]cc2C(c2ccc(-n3cccc3)cc2)n2ccnc2)cc1Cl (stereo not given) | 128 (≈ 295 µM) | > 256 | > 256 | > 256 | > 256 | 40 | 100 | > 438 | 80 | > 289 | 50 | > 256 | 128 (≈ 295 µM) | > 264 | > 256 | > 256 |  |
| O=[N+]([O-])c1ccc(C(c2c[nH]cc2-c2ccc(Cl)cc2)n2ccnc2)cc1 (stereo not given) | 32 (≈ 84.5 µM) | 32 (≈ 84.5 µM) | 64 (≈ 169 µM) | > 256 | > 256 | 0 | 60 | > 91.8 | 10 | > 91.8 | 0 | 32 (≈ 84.5 µM) | 16 (≈ 42.2 µM) | > 60.1 | 64 (≈ 169 µM) | > 355 |  |

From ChEMBL document CHEMBL1128323, “Antifungal agents. 9. 3-Aryl-4-[alpha-(1H-imidazol-1-yl)arylmethyl]pyrroles: a new class of potent anti-Candida agents” (1995)
